Results taken from patent publication US20260151453A1, “COMBINATION THERAPY FOR THE TREATMENT OF CANCER” (PEPTOMYC, S.L., priority 2022, published 2026).

Columns and labels:
[1] = tested on: SUM149 cell-derived xenograft (CDX); test: SUM149 cell-derived xenograft (CDX) model, orthotopic in mammary fat-pad, tumour growth; format: in vivo; conditions: SUM149 CDX mice, 4 weeks; Omomyc 50 mg/kg intravenous once a week; Olaparib 50 mg/kg oral gavage 6 times a week; preliminary
Experimental: SUM149 cell-derived xenograft (CDX) model mice were used for in vivo studies. Each mouse was inoculated orthotopically in the mammary fat-pad with 5 million cells. As the tumours reached 100 mm^3, mice were randomised in 4 treatment groups. Specifically, mice were treated with Omomyc once a week (50 mg/kg, intravenous), with Olaparib 6 times a week (50 mg/kg oral gavage), with the combination of the 2 drugs (combo) or with vehicle alone for 4 weeks. Relative volume was calculated as a percentage of tumour growth from the day of randomization and beginning of treatments. At end-point the average of the groups were respectively: vehicle 901.8%, Omomyc 663.6%, Olaparib 623.6%, and combination 335.8%.

MIA-PACA-2 cells = test: Viability of PDAC MIA-PACA-2 cells treated alone and in combination for 5 days; synergy score by SynergyFinder.org; format: cell-based; conditions: MIA-PACA-2, single agent, 5 days (FIG. 2)
Source text: Synergy scores can be interpreted as the average excess response due to drug interactions. Synergy scores close to 0 give limited confidence in synergy or antagonism. So, when the synergy scores are: less than −10, the interaction between two drugs is likely to be antagonistic. From −10 to 10, the interaction between two drugs is likely to be additive. Greater than 10, the interaction between two drugs is likely to be synergistic.
Pancreatic ductal adenocarcinoma (PDAC) MIA-PACA-2 cells were treated with increasing concentrations of Olaparib and the Omomyc peptide sequence SEQ ID NO: 4 alone and in combination, for 5 days.
Then synergy score was calculated by SynergyFinder.org after having carried out 3 biological replicates as described above.

Compound: O=C(c1cc(Cc2n[nH]c(=O)c3ccccc23)ccc1F)N1CCN(C(=O)C2CC2)CC1 [Olaparib, reference compound]
- Relative volume, percentage of tumour growth from the day of randomization (group average at end-point) [1]: 623.6%
- sensitivity of the cell line to the single agent (viability) (MIA-PACA-2 cells): particularly resistant
